Patent US4098798A, “Adriamycins, process for their preparation and uses thereof” (Societa' Farmaceutici Italia S.p.A., priority 1974, dated 1978)
Converted amounts (≈) assume the structure as drawn. Read-outs that look alike come from different tables or passages of the source.

Columns and labels:
B-subtilis = experiment: inhibition zones on agar-B-subtilis plates, paper disc technique; format: cell-based; details: hydrochlorides, read-out: inhibition zone diameter; for zone of inhibition at 10 µg/disc: 10 μg; for zone of inhibition at 20 µg/disc: 20 μg
[1] = cell proliferation in uninfected mouse embryo fibroblast cultures (cytotoxic action); format: cell-based; details: mouse embryo fibroblasts, treatment of 3 days, read-out: Cytotoxic Action ID50
Procedure: (§1) The test compounds were evaluated on mouse embryo fibroblast cultures infected with MSV and on similar uninfected cultures. After a treatment of 3 days, the inhibiting doses (ID50) were evaluated on cell proliferation in uninfected cultures (cytotoxic action) and on MSV foci formation in infected cultures (antiviral action).

HeLa cells = experiment: Cloning Efficiency of Hela cells in vitro; format: cell-based; details: for IC50: Homo sapiens, HeLa, 50% inhibition of colonies
Procedure: After treatment for 2,8 or 24 hours, HeLa cells were seeded (200 cells per plate) and the number of colonies determined 8 days later.
The ID50 represents the dose which gives a 50% of inhibition of colonies.

[2] = Cardiotoxic activity in vitro, beating of myocardial cells; format: cell-based, mice; details: mouse, 0.5 μg/ml, read-out: decrease of beating
[3] = tested on: Transplanted Gross Leukemia; experiment: Action on Transplanted Gross Leukemia in mice; format: in vivo, C3 H/He mice; details: first to fifth day
Excerpt: Inbred C3 H/He mice were intravenously inoculated with […] leukemia cells/mouse and treated, intravenously, from the first to the fifth day after inoculation with the compounds under examination.

L1210 Leukemia = experiment: Action on L1210 Leukemia in mice; format: in vivo, BDF1 mice; details: 5 times every two hours on days 1 and 2
Excerpt: Inbred BDF1 mice were intraperitoneally inoculated with 10^5 leukemia cells/mouse, and then treated (intraperitoneally) 5 times (every two hours) on days 1 and 2 after the tumor inoculation with varying doses of the compounds under examination.

[4] = tested on: Moloney Sarcoma Virus (MSV); experiment: MSV foci formation in infected mouse embryo fibroblast cultures (antiviral action); format: cell-based; details: 72 h, treatment of 3 days, read-out: Antiviral Action ID50
Procedure: as §1

Ascites Sarcoma 180 = experiment: Action on Ascites Sarcoma 180 in mice; format: in vivo, mice (Swiss CD 1); details: for Average Survival time: one day after inoculation, untreated = 100%
Procedure: The tests were carried out on groups of 10 mice (Swiss CD 1). The compounds under examination were administered intraperitoneally in varying doses to the test animals one day after intraperitoneal inoculation with 1 × 10^6 tumor cells per animal. The average survival time is given in Table 1 as a percentage of the survival time of untreated animals, which is arbitrarily designated as 100%. Also given in Table 1 are the number of long term survivors.

Solid Sarcoma 180 = experiment: Activity on Solid Sarcoma 180 in mice; format: in vivo, Swiss CD 1 mice; details: for % Inhibition tumor growth: 10th day
[5] = 1.25 mg/Kg subcutaneously every 2 hrs for 5 times at days 1 and 3
[6] = 1.75 mg/Kg subcutaneously every 2 hrs for 5 times at days 1 and 3
[7] = 2 mg/Kg intravenously twice a day on days 1,2,3
[8] = 2.45 mg/Kg subcutaneously every 2 hrs for 5 times at days 1 and 3
[9] = 2.5 mg/Kg intravenously once a day on days 1,2,3,4,5
[10] = 2.5 mg/Kg intravenously twice a day on days 1,2,3
[11] = 3 mg/Kg intravenously twice a day on days 1,2,3

Structure (SMILES): COc1cccc2c1C(=O)c1c(O)c3c(c(O)c1C2=O)C[C@@](O)(C(=O)CO)C[C@@H]3O[C@@H]1C[C@H](N)[C@@H](O)[C@H](C)O1 [4'-epi-adriamycin (β-anomer), 7-0-(3'-amino-2',3',6'-trideoxy-β-L-arabinohexopyranosyl)-adriamycinone]
- zone of inhibition at 5 µg/disc (B-subtilis; 5 μg): 15 mm
- zone of inhibition at 10 µg/disc (B-subtilis): 15.5 mm
- zone of inhibition at 15 µg/disc (B-subtilis; 15 μg): 16 mm
- zone of inhibition at 20 µg/disc (B-subtilis): 17 mm

Structure (SMILES): COc1cccc2c1C(=O)c1c(O)c3c(c(O)c1C2=O)C[C@@](O)(C(=O)CO)C[C@@H]3O[C@H]1C[C@H](N)[C@H](O)[C@H](C)O1 [Adriamycin, 7-0-(3'-amino-2',3',6'-trideoxy-α-L-lyxohexopyranosyl)-adriamycinone]
- CC50 at 72 h [1]: 0.01 µg/mL (≈ 0.0184 µM)
- IC50 (HeLa cells; Table 7, 2h treatment, read-out: DI50 (the source's name)): 0.17 µg/mL (≈ 0.313 µM)
- IC50 (HeLa cells; Table 7, 8h treatment, read-out: DI50 (the source's name)): 0.14 µg/mL (≈ 0.258 µM)
- IC50 (HeLa cells; Table 7, 24h treatment, read-out: DI50 (the source's name)): 0.016 µg/mL (≈ 0.0294 µM)
- IC50 (HeLa cells; Table 8, 2h treatment, read-out: DI 50 (the source's name)): 0.35 µg/mL (≈ 0.644 µM)
- IC50 (HeLa cells; Table 8, 8h treatment, read-out: DI 50 (the source's name)): 0.18 µg/mL (≈ 0.331 µM)
- IC50 (HeLa cells; Table 8, 24h treatment, read-out: DI 50 (the source's name)): 0.125 µg/mL (≈ 0.23 µM)
- Average Number of Colonies (HeLa cells; Table 7, 0.05 μg/ml, 24h, control 223): 76
- Average Number of Colonies (HeLa cells; Table 7, 0.1 μg/ml, 2h, control 132): 79
- Average Number of Colonies (HeLa cells; Table 7, 0.1 μg/ml, 8h, control 125): 73
- Average Number of Colonies (HeLa cells; Table 7, 0.1 μg/ml, 24h, control 223): 48
- Average Number of Colonies (HeLa cells; Table 7, 0.25 μg/ml, 2h, control 132): 46
- Average Number of Colonies (HeLa cells; Table 7, 0.25 μg/ml, 8h, control 125): 38
- Average Number of Colonies (HeLa cells; Table 7, 0.25 μg/ml, 24h, control 223): 20
- Average Number of Colonies (HeLa cells; Table 7, 0.5 μg/ml, 2h, control 132): 42
- Average Number of Colonies (HeLa cells; Table 7, 0.5 μg/ml, 8h, control 125): 16
- Average Number of Colonies (HeLa cells; Table 7, 0.5 μg/ml, 24h, control 223): 0
- Average Number of Colonies (HeLa cells; Table 7, 1 μg/ml, 2h, control 132): 21
- Average Number of Colonies (HeLa cells; Table 7, 1 μg/ml, 8h, control 125): 8
- Average Number of Colonies (HeLa cells; Table 7, 1 μg/ml, 24h, control 223): 0
- Average Number of Colonies (HeLa cells; Table 8, 0.125 μg/ml, 2h, control 156): 166
- Average Number of Colonies (HeLa cells; Table 8, 0.125 μg/ml, 24h, control 136): 69
- Average Number of Colonies (HeLa cells; Table 8, 0.25 μg/ml, 2h, control 156): 92
- Average Number of Colonies (HeLa cells; Table 8, 0.25 μg/ml, 8h, control 189): 28
- Average Number of Colonies (HeLa cells; Table 8, 0.25 μg/ml, 24h, control 136): 43
- Average Number of Colonies (HeLa cells; Table 8, 0.5 μg/ml, 2h, control 156): 27
- Average Number of Colonies (HeLa cells; Table 8, 0.5 μg/ml, 8h, control 189): 14
- zone of inhibition at 10 µg/disc (B-subtilis): 21 mm
- zone of inhibition at 20 µg/disc (B-subtilis): 23 mm
- inhibition at 2 h [2]: 50%
- Long Term Survivors (after 60 days) ([3]; 2 mg/Kg i.v.): 0/10
- Average Survival time, Exp. 1 ([3]; 2 mg/Kg i.v.): 183%
- Long Term Survivors (after 60 days) ([3]; 2.5 mg/Kg i.v.): 0/20
- Average Survival time, Exp. 1 ([3]; 2.5 mg/Kg i.v.): 208%
- Average Survival time, Exp. 2 ([3]; 2.5 mg/Kg i.v.): 186%
- Long Term Survivors (after 60 days) ([3]; 2.75 mg/Kg i.v.): 0/10
- Average Survival time, Exp. 1 ([3]; 2.75 mg/Kg i.v.): 208%
- Long Term Survivors (after 60 days) ([3]; 3 mg/Kg i.v.): 0/10
- Average Survival time, Exp. 2 ([3]; 3 mg/Kg i.v.): 186%
- Long Term Survivors (after 60 days) ([3]; 3.6 mg/Kg i.v.): 0/10
- Average Survival time, Exp. 2 ([3]; 3.6 mg/Kg i.v.): 200%
- Average Survival time (L1210 Leukemia; 0.75 mg/Kg i.p.): 160%
- Average Survival time (L1210 Leukemia; 1 mg/Kg i.p.): 155%
- Long Term Survivors (after 60 days) (L1210 Leukemia; 1 mg/Kg i.p.): 1/10
- Average Survival time (L1210 Leukemia; 1.25 mg/Kg i.p.): 175%
- IC50 [4]: 0.005 µg/mL (≈ 0.0092 µM)
- Long Term Survivors (after 60 days) (Ascites Sarcoma 180; 1 mg/Kg i.p.): 0/10
- Average Survival time (Ascites Sarcoma 180; 1 mg/Kg i.p.): 169%
- Long Term Survivors (after 60 days) (Ascites Sarcoma 180; 5 mg/Kg i.p.): 2/10
- Average Survival time (Ascites Sarcoma 180; 5 mg/Kg i.p.): 276%
- Average Survival time (Solid Sarcoma 180; [5]): 112%
- Toxic Deaths (at 10th day) (Solid Sarcoma 180; [5]): 0/10
- % Inhibition tumor growth (Solid Sarcoma 180; [5]): 69%
- Average Survival time (Solid Sarcoma 180; [6]): 87%
- Toxic Deaths (at 10th day) (Solid Sarcoma 180; [6]): 1/10
- % Inhibition tumor growth (Solid Sarcoma 180; [6]): 75%
- Average Survival time (Solid Sarcoma 180; [7]): 100%
- Toxic Deaths (at 10th day) (Solid Sarcoma 180; [7]): 1/10
- % Inhibition tumor growth (Solid Sarcoma 180; [7]): 70%
- Average Survival time (Solid Sarcoma 180; [8]): 32%
- Toxic Deaths (at 10th day) (Solid Sarcoma 180; [8]): 6/10
- Toxic Deaths (at 10th day) (Solid Sarcoma 180; [9]): 0/10
- % Inhibition tumor growth (Solid Sarcoma 180; [9]): 54%
- Average Survival time (Solid Sarcoma 180; [10]): 100%
- Toxic Deaths (at 10th day) (Solid Sarcoma 180; [10]): 2/10
- % Inhibition tumor growth (Solid Sarcoma 180; [10]): 71%
- Average Survival time (Solid Sarcoma 180; [11]): 57%
- Toxic Deaths (at 10th day) (Solid Sarcoma 180; [11]): 6/10
- Toxic Deaths (at 10th day) (Solid Sarcoma 180; 3.5 mg/Kg intravenously once a day on days 1,2,3,4,5): 7/10
